Measured values taken from patent publication US20050187581A1, “Methods of treating disorders with electric fields” (priority 2000, published 2005).
Read-outs that look alike come from different tables or passages of the source.

Assays:
[1] = Antioxidant activity (AOA) of plasma from AAPH-treated rats, against AAPH; type: in vivo, Sprague-Dawley rats; settings: for AOAAAPH: ascorbic acid 500 mg/kg p.o., SOD 50 mg/kg s.c., mean ± SEM, n=8
Experimental: (§1) To examine the effects of EF effect during oxidative stress, rats were divided into five groups (n=8) as follows: 1) non-treatment; 2) treatment with the oxidizing agent, AAPH, on experimental day seven; 3) co-treatment with EF and AAPH; 4) co-treatment with AAPH and the anti-oxidant agent, ascorbic acid; or 5) co-treatment with AAPH and superoxide dismutase. Rats of Group 3 were exposed to a sine wave of 50 Hz, 17,500 V/m intensity, 15 minutes per day for one week. In addition, Groups 1, 2, 4 and 5 were sham EF exposed, in which were maintained for an equal period of time inside the exposure cage with the system turned off. On the seventh day after EF was started, Group 3 was exposed to EF just after administration of AAPH (10 mg/kg, i.p.). In Group 4, ascorbic acid (500 mg/kg, p.o.) was administered 60 minutes before of the AAPH treatment. Superoxide dismutase (50 mg/kg, s.c., Nacalai Tesque, Tokyo, Japan) was administered to Group 5 just before the AAPH treatment. Under pentobarbital (45 mg/kg, i.p.) anesthesia, blood was collected from the abdominal cava vein 90 minutes later after AAPH administration, and the plasma was separated by centrifugation at 1,670×g for 10 minutes at 4° C. The plasma samples were stored at −80° C. until tested.
(§2) Plasma AOA was measured by a method using a derivative of methylene blue. Briefly, 0.1 ml plasma or a solution of ascorbic acid (Wako Ltd., Osaka, Japan) and 0.65 ml distilled water was added into 1.5 ml of Good's buffer adjusted to pH 5.8 (Good et al., 1966), including 1% triton X-100 supplemented with 3,7-bis-demethylamino-10-methyl carbamoyl phenothiazine (MCDP, 40 μM, KYOWA MEDEX Co., Ltd., Tokyo, Japan) and hemoglobin (67.5 μg/ml). After incubation for one minute at 37° C., 0.25 ml of tert-butylhydroperoxide (84 μM, BHP, Aldrich) as an alkoxyl radical initiator was added and reacted for 10 minutes at 37° C. In addition, AOA measurements in a reaction using AAPH (50 mM) as a peroxy radical initiator were conducted in Good's buffer without hemoglobin for 20 minutes at 37° C. A radical initiator not trapped by an antioxidant in each plasma sample will oxidize MCDP. The absorbance of the resultant blue color was subsequently measured by absorbance at 675 nm using a spectrophotometer (150-20, Hitachi). The equation to calculate AOA was the following: AOA (%)=(1−Abs1/Abs2)×100, where Abs1 is the absorbance of the plasma sample, and Abs2 is a value of the blank.

[2] = Antioxidant activity (AOA) of plasma from AAPH-treated rats, against BHP; type: in vivo, Sprague-Dawley rats; settings: for Plasma antioxidant activity against BHP: ascorbic acid 500 mg/kg p.o., SOD 50 mg/kg s.c., mean ± SEM, n=8
Experimental: as §1, §2

AAPH-treated rats = assay: Plasma lipid peroxide (TBARS) levels in AAPH-treated rats; type: in vivo, Sprague-Dawley rats; settings: for Plasma levels of lipid peroxide compared to the sham EF-exposed group: AAPH-treated rats, P<0.05 (ascorbic acid), P<0.01 (superoxide dismutase); for Malondialdehyde concentration: plasma lipid peroxide, AAPH 10 mg/kg i.p., ascorbic acid 500 mg/kg p.o., SOD 50 mg/kg s.c., mean ± SEM, n=8
Experimental: as §1
Thiobarbituric acid reactive substance (TBARS), as an indicator of the plasma concentration of lipid peroxide, was measured using a commercialized kit (Lipid peroxide-test Wako, Wako Ltd., Osaka, Japan).

[3] = Antioxidant activity (AOA) of rat plasma, ascorbic acid added in the test tube, AAPH as radical initiator; type: biochemical, Sprague-Dawley rats
Experimental: (§3) To examine the effects of EF on unstressed rats, rats were exposed to a sine wave of 50 Hz, 17,500 V/m intensity, 15 minutes per day for 1 one week. Each rat in three groups (n=5) was individually treated with an EF or a sham EF, or was not treated. Rats exposed to sham EF were maintained for an equal period of time inside the exposure cage with the system turned off. Under pentobarbital (45 mg/kg, i.p.) anesthesia, blood was collected from the abdominal cava vein after EF exposure on experimental day seven, and the plasma was separated by centrifugation at 1,670×g for 10 minutes at 4° C. The plasma samples were stored at −80° C. until tested.
(§4) Plasma AOA was measured by a method using a derivative of methylene blue. Briefly, 0.1 ml plasma or a solution of ascorbic acid (Wako Ltd., Osaka, Japan) and 0.65 ml distilled water was added into 1.5 ml of Good's buffer adjusted to pH 5.8 (Good et al., 1966), including 1% triton X-100 supplemented with 3,7-bis-demethylamino-10-methyl carbamoyl phenothiazine (MCDP, 40 μM, KYOWA MEDEX Co., Ltd., Tokyo, Japan) and hemoglobin (67.5 μg/ml). […] The absorbance of the resultant blue color was subsequently measured by absorbance at 675 nm using a spectrophotometer (150-20, Hitachi). The equation to calculate AOA was the following: AOA (%)=(1−Abs1/Abs2)×100, where Abs1 is the absorbance of the plasma sample, and Abs2 is a value of the blank.

[4] = Antioxidant activity (AOA) of rat plasma, ascorbic acid added in the test tube, BHP as radical initiator; type: biochemical, Sprague-Dawley rats
Experimental: as §3, §4

[5] = target: T1, human calcium receptor protein (HuPCaR) (Homo sapiens, UniProt P41180); assay: FURA2 ratio fluorimetry of HuPCaR cells on stepwise additions of extracellular CaCl2; type: cell-based
T1 construct: expressed in transfected cells; host or cells: HEK (human embryonic kidney) cells, stably transfected
T1 sequence (P41180 20-1078): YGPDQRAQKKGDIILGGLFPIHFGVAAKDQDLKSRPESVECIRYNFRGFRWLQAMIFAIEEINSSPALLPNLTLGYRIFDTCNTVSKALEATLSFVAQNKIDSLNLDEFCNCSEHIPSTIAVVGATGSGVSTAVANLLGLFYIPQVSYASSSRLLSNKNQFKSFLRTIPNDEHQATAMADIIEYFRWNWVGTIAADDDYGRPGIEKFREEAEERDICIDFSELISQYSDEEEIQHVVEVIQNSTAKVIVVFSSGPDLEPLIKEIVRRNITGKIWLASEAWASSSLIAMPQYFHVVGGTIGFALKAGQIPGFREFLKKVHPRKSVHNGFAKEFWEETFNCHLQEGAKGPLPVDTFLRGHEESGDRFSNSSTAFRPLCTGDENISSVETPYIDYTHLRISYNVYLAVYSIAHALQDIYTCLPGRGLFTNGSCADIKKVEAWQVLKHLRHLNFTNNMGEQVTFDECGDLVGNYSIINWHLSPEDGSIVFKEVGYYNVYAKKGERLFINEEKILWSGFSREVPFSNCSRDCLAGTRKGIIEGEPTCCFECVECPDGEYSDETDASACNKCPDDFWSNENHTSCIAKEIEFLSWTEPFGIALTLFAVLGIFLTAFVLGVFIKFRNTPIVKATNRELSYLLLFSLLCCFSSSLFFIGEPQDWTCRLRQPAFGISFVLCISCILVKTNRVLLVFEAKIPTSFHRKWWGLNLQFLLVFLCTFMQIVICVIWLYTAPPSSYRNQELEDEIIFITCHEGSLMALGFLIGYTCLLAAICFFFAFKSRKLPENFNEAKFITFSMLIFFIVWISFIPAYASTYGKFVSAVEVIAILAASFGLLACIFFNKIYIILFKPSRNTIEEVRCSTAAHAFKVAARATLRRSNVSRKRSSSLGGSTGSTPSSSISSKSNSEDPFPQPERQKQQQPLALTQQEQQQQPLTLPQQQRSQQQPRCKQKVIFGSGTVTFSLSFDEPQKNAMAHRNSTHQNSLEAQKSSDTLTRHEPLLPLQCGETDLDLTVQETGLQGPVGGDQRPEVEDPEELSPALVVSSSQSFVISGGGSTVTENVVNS
Experimental: In selected experiments, ionomycin (1 micromolar final concentration-stock dissolved in dimethyl sulfoxide) was added in order to quantify differences in FURA2 ratio fluorescence. Ionomycin was added to the cells to obtain a maximal fluorescence signal from the FURA2 for purposes of quantification. FIG. 15 outlines the experimental system that was utilized to obtain the data described below. Cultured HEK or HuPCaR cells were loaded with FURA2 after their growth on plastic tissue culture dishes, scraped and rinsed in buffer to create a cell suspension that was then divided into various aliquots. Selected aliquots were exposed to EF in the EF exposure device. Subsequent to either EF exposure or sham control (no EF) treatments, aliquots of cells were used for standard ratio imaging fluorimetry analysis to measure changes in intracellular Ca^2+ concentrations. Initially, measurements were obtained of the baseline intracellular Ca^2+ concentration for each aliquot of cells as shown by the bracket marked #1 in FIG. 15. […] In an effort to obtain more quantitative data from individual aliquots within an individual experiment as well as comparison of data from different experiments, we incorporated the use of ionomycin as shown in FIG. 13 to determine the maximal FURA2 signal achievable within each aliquot of cells. […]

mouse splenocytes = assay: [Ca^2+]c-high cells in lectin-stimulated mouse splenocytes, fluo-3 flow cytometry; type: cell-based, BALB/c mice; settings: 5 μg/ml PHA, 1 mM CaCl2; EF-exposed and unexposed cells
Experimental: In order to avoid contact of the cells and the lower electrode, polycarbonate membrane (Isopore, MILLIPORE, MA USA) was placed between the dish and the insert. Approximately 1 ml of the cell suspension was poured into culture well/space and covered with a lid.
Female BALB/c mice, 4-7 wk old obtained from CLEA Inc. (Tokyo, Japan) maintained in a conventional animal house equipped with clean air-filtering device were splenectomized under anesthesia, and cell suspensions of splenocytes were prepared. To examine cell viability, the cells were cultivated in Dulbecco's modified Eagle's medium (SIGMA, MO, USA) supplemented with 10% fetal bovine serum (FSB). The cells were maintained in Hank's balanced salt solution (HBSS) (SIGMA, MO, USA) during examination for [Ca^2+]c which was carried out within 4 hr after cell preparation. Cells were stored at 4 degree C. prior to use.
Splenocytes (10^6 cells/ml) were incubated for 20 min at 37 degrees C. in HBSS containing 2.5 μM fluo-3-acetoxylmethyl (Molecular Probes, USA) [Vandenberghe et al., 1990]. The cell suspension was then diluted 5 times with HBSS containing 1% FBS, incubated for 40 min at 37 degrees C., washed 3 times with assay buffer, and the cells were then suspended in the assay buffer at a concentration of 1×10^6/ml. Throughout the cell preparation, the cell suspensions were mixed gently.
Considering the reported synergistic interaction between EMF and mitogen (Walleczek and Liburdy, 1990), concanavalin-A (Con-A) (Seikagaku Co., Tokyo, Japan) and phytohemaglutinin (PHA) (SIGMA, MO, USA) were used.
Taking into account the results of the viability test for exposed murine splenocytes earlier assayed, we chose to use the optimum culture and exposure conditions (60 Hz, 6 μA/cm^2 EF) in carrying out the following five experiments: • (1) cells suspended in HEPES-buffered saline (BS)+1 mM CaCl2 were exposed to EF for a total of 40 min, and 12.5 μg/ml of Con-A was added after the first 8 min of exposure. The control groups consisted of EF-unexposed cells containing Con-A, and EF-exposed cells without Con-A. Percent [Ca^2+]c-high cells was checked at certain exposure points; • (2) cells in HEPES-BS+1 mM CaCl2 were exposed for a total of 12 min, and different concentrations (1 ng-12.5 μg/ml) of Con-A were added after the first 4 min of exposure. The control group was essentially the same as that of the experimental group but without EF-exposure; • (3) cells in HEPES-BS+1 mM CaCl2 were exposed for a total of 8 min, and 5 μg/ml of PHA was added after the first 4 min of exposure. The control groups consisted of EF-unexposed cells containing PHA, and EF-exposed cells without PHA; • (4) cells suspended in HEPES-BS without CaCl2 were exposed for a total of 12 min, and different concentrations (1 ng-5 μg/mil) of Con-A were added after the first 4 min of exposure. The control group was essentially the same as the experimental group but without EF exposure; and • (5) to evaluate the persistent effect of EF exposure, cells suspended in HEPES-BS+[…] were exposed for a total of 4 min, after which different concentrations (0.025-12.5 μg/ml) of Con-A were added, and the generation of [Ca^2+]c-high cells for the next 8 min without EF exposure was monitored with flow cytometry. The control was essentially the same as the experimental group but without any EF-exposure. Statistical Analysis

[6] = added to plasma of the non-treatment group, P<0.01
[7] = ascorbic acid 440 ng/ml added to plasma of non-treatment group, mean ± SEM, n=5

In the case of `CC(C)(N=NC(C)(C)C(=N)N)C(=N)N.Cl.Cl` [AAPH, 2,2′-azobis(2-amidinopropane)dihydrochloride], the “Change in plasma AOA against AAPH in rats treated with AAPH” value ([1]; AAPH 10 mg/kg i.p.) is reported as “suppression” and the “Change in plasma AOA against BHP in rats treated with AAPH” value ([2]; AAPH 10 mg/kg i.p.) is reported as “did not show any changes”.

For `O=C1O[C@H]([C@@H](O)CO)C(O)=C1O` [Ascorbic acid, ascorbic acid], the “Plasma levels of lipid peroxide compared to the sham EF-exposed group” value (AAPH-treated rats) was “lower”, the Malondialdehyde concentration (AAPH-treated rats) was 1.509 ± 0.05 nmol/mL and the “AOA of plasma against AAPH after addition of ascorbic acid” value [3, 6] was “significantly elevated”. For the same compound, the AOAAAPH [3, 7] was 62.0 ± 3.8 %, the “Plasma AOA compared to the other four groups” value ([1]; AAPH-treated rats, P<0.01) was “significantly higher” and the AOAAAPH ([1]; AAPH-treated rats) was 46.3 ± 3.2 %. For the same compound, the “AOA against BHP compared to the other four groups” value ([2]; AAPH-treated rats, P<0.01) was “increase”, the “Plasma antioxidant activity against BHP” value ([2]; AAPH-treated rats) was 87.5 ± 0.3 % and the “AOA of plasma against BHP after addition of ascorbic acid” value [4, 6] was “significantly elevated”. For the same compound, the AOABHP [4, 7] was 87.7 ± 0.3 %.

Compound `[Ca+2].[Cl-].[Cl-]` [Ca^2+, CaCl2] has an EC50 ([5]; FURA2 response method of Quinn et al., read-out: EC50 value for Ca^2+ derived using the method outlined in FIG. 20) of 3.5 mM and an EC50 ([5]; calculated from Na+/Ca2+ ratio midpoint 36.6, Standard Experimental Buffer of 125 mM NaCl, FURA2 baseline, read-out: EC50 value for Ca) of 3.5 mM.

For phytohemaglutinin [PHA], the “[Ca^2+]c-high cells” value (mouse splenocytes) was “significant increases”.

For superoxide dismutase [SOD], the “Plasma levels of lipid peroxide compared to the sham EF-exposed group” value (AAPH-treated rats) was “lower”, the Malondialdehyde concentration (AAPH-treated rats) was 1.139 ± 0.10 nmol/mL and the “Plasma AOA compared to the sham EF-exposed group” value ([1]; AAPH-treated rats) was “not different”. For the same compound, the “Plasma AOA compared to the non-treatment group” value ([1]; AAPH-treated rats, P<0.05) was “significantly suppressed”, the AOAAAPH ([1]; AAPH-treated rats) was 22.1 ± 2.5% and the “Plasma antioxidant activity against BHP” value ([2]; AAPH-treated rats) was 78.0 ± 2.1%.
